Measured values published in patent US12128062B2, “Methods for targeting pain directed at metabolic pathways” (UNIVERSITY OF MARYLAND, BALTIMORE, priority 2018, dated 2024).

Tests used:
[1] = Bortezomib-induced CIPN (neuropathic pain) mouse model, tactile thresholds / allodynia; type: in vivo
Method: teRNA was administered to mice which have developed neuropathic pain due to bortezomib treatment. In this experiment, mice were treated with intraperitoneal 0.2 mg/kg of bortezomib (Millipore Sigma, Cat #5.04314.0001) for 5 consecutive days for a total dose of 1 mg/kg. The vehicle group received intraperitoneal saline for 5 consecutive days. The mice that receive bortezomib develop profound allodynia. The efficacy of teRNA for treating and preventing the development of bortezomib-induced neuropathic pain was explored.
Treatment with bortezomib (bort) from day 0-4 (black arrow) led to the development of severe neuropathic pain. Baseline thresholds were measured on day 0 and allodynia was tested on days 14, 15, 17 and 21.
In a second experiment, mice were treated with either saline or bortezomib on days 0-4 (intraperitoneal 0.2 mg/kg of bortezomib for 5 consecutive days for a total dose of 1 mg/kg). On day 7 mice that received bortezomib developed profound neuropathic pain.
To determine if teRNA can prevent the development of chemotherapy-induced neuropathic pain, mice were co-treated with IT teRNA (days 0, 2 and 4) and intraperitoneal (IP) bortezomib (days 0-4) (intraperitoneal 0.2 mg/kg of bortezomib for 5 consecutive days for a total dose of 1 mg/kg).

[2] = Hyperalgesic priming model (plantar incision then intraplantar PGE2), tactile thresholds by von Frey filaments; type: in vivo, mouse
Excerpt: The hyperalgesic priming model was utilized in the experiments because it is well-characterized and used to study the neuroplasticity underlying persistent pain sensitization and the transition of acute pain to chronic pain [13-17]. As shown at the top FIG. 2, the model is comprised of three phases. 1) The acute phase, also called the induction phase, causes transient tactile hypersensitivity in response to various pro-nociceptive compounds and resolves within a week. The hindpaw plantar incision model was used for the acute phase, which comprises incision of the skin, the underlying fascia, and the plantar flexor digitorum brevis muscle as the initial injury. This model was selected since it lacks injury to major peripheral nerves and typically resolves within a week. 2) The primed phase follows the acute phase. The animals are not hypersensitive and this phase can last for at least 3 weeks.
In this experiment, mice received plantar incision and their tactile thresholds were determined using von Frey filaments. Mice were placed in small cages with a mesh floor individually. Calibrated monofilaments of differing forces are applied perpendicularly to the hind paw. Withdraws, licking or flinching of the paw in response to the filament is considered a positive response. The results are provided in FIG. 2A where “Threshold (grams)” on the y-axis represents the amount of force required for the mice to withdraw the hindpaw before (baseline, BL) and after the incision. Reduced withdrawal threshold indicates increased pain.
In this experiment, the same mice used in the acute phase were allowed to recover and on Day 10 received intraplantar PGE2. The results are provided in FIG. 2B where “Threshold (grams)” on the y-axis represents the amount of force required for the mice to withdraw their hindpaw which is an indication of tactile hypersensitivity and pain. […] 1, 2, 3 and 4 days post-PGE2 injection, *** P<0.001. […] PGE2 injection caused profound allodynia in mice that had plantar incision.
In this experiment, mice were injected with 1 μg of teRNA or teRNAmm intrathecally (IT). The next day L4-6 DRGs were dissected and acutely dissociated for extracellular flux analysis. One day post teRNA and teRNA mm injection L4-6 DRGs were dissected and proteins were extracted for western blot analysis. In an independent experiment, mice received plantar incision and were allowed to recover. On day 10 baseline measurements were performed, which was followed by intraplantar injection of PGE2. Allodynia testing was preformed form on days 14, 15, 21 and 24. Intrathecal teRNA or teRNAmm (1 μg) were injected on day 14 following the allodynia testing. […]

[3] = tested on: L4-6 DRG cultures (sensory neurons); assay: Extracellular flux analysis (Seahorse XFp): glutamine oxidation-dependent oxygen consumption rate of dissociated L4-6 DRG cultures from IT-treated mice; type: cell-based, mouse; details: glutamine 2 mM; for increase in oxygen consumption rate (OCR) in response to glutamine addition: DRG cultures from mice given 1 μg IT one day earlier, baseline OCR subtracted; for time over which the glutamine-induced OCR increase lasts: DRG cultures from mice given 1 μg IT
Method: In this experiment, mice were injected with 1 μg of teRNA or teRNAmm intrathecally (IT). The next day L4-6 DRGs were dissected and acutely dissociated for extracellular flux analysis. One day post teRNA and teRNA mm injection L4-6 DRGs were dissected and proteins were extracted for western blot analysis. In an independent experiment, mice received plantar incision and were allowed to recover. On day 10 baseline measurements were performed, which was followed by intraplantar injection of PGE2. Allodynia testing was preformed form on days 14, 15, 21 and 24. Intrathecal teRNA or teRNAmm (1 μg) were injected on day 14 following the allodynia testing.
In this experiment, L4-6 DRGs were dissected form naïve, teRNAmm and teRNA treated mice. Lumbar 4-6 DRGs were placed in Hank's Buffered Salt Solution (HBSS, Thermo Fisher, Cat #14170112) on ice. The ganglia were dissociated enzymatically with collagenase A (1 mg/ml, 25 min, Millipore Sigma, Cat #10103578001) and collagenase D (1 mg/ml, Millipore Sigma, Cat #11088858001) with papain (30 U/ml, Millipore Sigma, Cat #10108014001) for 20 min at 37° C. To eliminate debris and large diameter sensory neurons, 70 μm (Thermo Fisher, Cat #087712) cell strainers were used. The dissociated cells were resuspended in DMEM/F12 (Thermo Fisher, Cat #10565042) containing 1× pen-strep (Thermo Fisher, Cat #15070063) and 10% fetal bovine serum (Millipore Sigma, Cat #F2442). The cells were plated in Seahorse XFp Cell Culture Miniplate (Agilent, Cat #103025-100). These cultures were incubated overnight at 37° C. in a humidified 95% air/5% CO2 incubator. The metabolic changes were characterized by analyzing the glycolysis and oxidative phosphorylation rates of sensory neurons using extracellular flux analyzer, Seahorse XFp (Agilent). Dissociated L4-6 primary afferents were incubated in DMEM (Millipore Sigma, Cat #D5030) without glutamine, pyruvate or glucose, Baseline oxygen consumption rate (OCR) measurements were followed by the addition of glutamine (2 mM). The baseline OCR values were subtracted from each of the other values to determine glutamine oxidation-dependent OCR.

ASCT2 = assay: Western blot of ASCT2 protein in L4-6 DRGs after intrathecal injection; type: in vivo, mouse; details: IT 1 μg, DRGs dissected 24 hrs post injection; versus teRNAmm control
Method: Western blot (WB) analyses were performed to examine changes in metabolic genes that are known to regulate pyruvate and glutamine oxidation. In these experiments, lumbar 4-6 dorsal root ganglia (L4-6 DRGs) which innervate the hindpaw were dissected on Day 1, 9 and 14 post-plantar incisions (as described above). Protein was extracted from the L4-6 DRGs in lysis buffer (50 mM Tris HCl, 1% Triton X-100, 150 mM NaCl, and 1 mM EDTA at pH 7.4) containing protease and phosphatase inhibitor mixtures with an ultrasonicator on ice, and cleared of cellular debris by centrifugation at 14,000 relative centrifugal force for 15 min at 4° C. Fifteen micrograms of protein per well were loaded and separated by standard 7.5% or 10% SDS-PAGE. Proteins were transferred to Immobilon-P membranes (Millipore Sigma, Cat #IPVH00010) and then blocked with 5% dry milk for 3 h at room temperature. The blots were incubated with primary antibody overnight at 4° C. and detected the following day with donkey anti-rabbit or goat anti-mouse antibody conjugated to horseradish peroxidase (1:10,000, Jackson Immunoresearch, Cat #711-036-152, Cat #115-036-062). Signal was detected by enhanced chemiluminescence on films. For assessment of phospho-proteins, membranes were stripped and reprobed for total-protein of interest for normalization. Densitometric analyses were done using UN-SCAN-IT 7.1 software (Silk Scientific Corp.). […]

[4] = IT 1 μg on days 7, 9 and 11, bortezomib IP 0.2 mg/kg days 0-4
[5] = single IT 1 μg on day 14, bortezomib IP 0.2 mg/kg days 0-4
[6] = single IT 1 μg, 14 days post plantar incision (4 days post PGE2)

5′-CAUACUACGCCGUAGC-3′ (2'-O-methyl modifications, further chemistry not given here) [teRNAmm, reference compound]
effect on existing bortezomib-induced neuropathic pain, repeated treatment [1, 4]: did not impact the bortezomib-induced neuropathic pain
effect on bortezomib-induced neuropathic pain / tactile thresholds, single treatment [1, 5]: did not impact the tactile thresholds
effect on tactile hypersensitivity / tactile thresholds, incision group [2, 6]: did not display any change in their tactile thresholds
increase in oxygen consumption rate (OCR) in response to glutamine addition [3]: 10%
time over which the glutamine-induced OCR increase lasts [3]: ≤ 30 min

5′-CAUAGAUCCGGGAUGC-3′ (2'-O-methyl modifications, further chemistry not given here) [teRNA]
duration of pain relief, repeated treatment [1, 4]: at least 2 weeks
effect on existing bortezomib-induced neuropathic pain, repeated treatment [1, 4]: prolonged pain relief
prevention of development of bortezomib-induced neuropathic pain, co-treatment ([1]; IT on days 0, 2 and 4 with IP bortezomib 0.2 mg/kg days 0-4): prevented the development of bortezomib-induced neuropathic pain
time post the initiation of bortezomib treatment up to which existing neuropathic pain was alleviated ([1]; IT on days 7, 9 and 11, bortezomib days 0-4): at least 21 days
duration of alleviation of bortezomib-induced neuropathic pain, single treatment [1, 5]: several days
effect on bortezomib-induced neuropathic pain / tactile thresholds, single treatment [1, 5]: reversed the bortezomib-induced neuropathic pain
ASCT2 protein in L4-6 DRGs (ASCT2): robust increase
effect on tactile thresholds of the control group (no incision) ([2]; single IT 1 μg on day 14): did not affect the tactile thresholds
duration of alleviation of tactile hypersensitivity, incision group [2, 6]: at least 7 days
effect on tactile hypersensitivity / tactile thresholds, incision group [2, 6]: alleviated tactile hypersensitivity
increase in oxygen consumption rate (OCR) in response to glutamine addition [3]: around 20%
time over which the glutamine-induced OCR increase lasts [3]: at least 30 mins
